Experiment [1] concerns the target T1, Beta-2 adrenergic receptor (Cavia porcellus, UniProt Q8K4Z4). Description: Agonist activity at adrenergic beta2 receptor in Hartley guinea pig tracheal ring at basal tone assessed as bronchorelaxation activity.
For experiment [2], the target named is T1, Beta-2 adrenergic receptor. Description: Agonist activity at adrenergic beta2 receptor in Hartley guinea pig tracheal ring assessed as bronchorelaxation activity against histamine-induced contraction. The arrangement: species or system Trachea.
For experiment [3], the target named is Beta-2 adrenergic receptor (Cavia porcellus) (UniProt Q8K4Z4). The experiment in a line: Agonist activity at adrenergic beta2 receptor in Hartley guinea pig tracheal ring assessed as bronchorelaxation activity against histamine-induced contraction relative to isoproterenol. The note with it: Trachea.

Some results are limits rather than exact numbers.

T1 sequence (Q8K4Z4 whole entry): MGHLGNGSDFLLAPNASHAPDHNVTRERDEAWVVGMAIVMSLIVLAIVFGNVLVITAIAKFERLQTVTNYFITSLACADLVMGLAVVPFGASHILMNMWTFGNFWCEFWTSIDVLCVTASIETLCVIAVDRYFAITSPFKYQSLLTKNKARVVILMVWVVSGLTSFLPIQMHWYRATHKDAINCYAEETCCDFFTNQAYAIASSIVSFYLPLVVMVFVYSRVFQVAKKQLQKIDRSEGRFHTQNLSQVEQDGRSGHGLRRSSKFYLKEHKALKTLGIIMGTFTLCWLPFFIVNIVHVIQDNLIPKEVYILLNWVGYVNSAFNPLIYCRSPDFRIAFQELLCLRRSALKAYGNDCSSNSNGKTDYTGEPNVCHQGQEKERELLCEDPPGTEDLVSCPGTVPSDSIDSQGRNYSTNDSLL
Chain of Beta-2 adrenergic receptor (Cavia porcellus) (Q8K4Z4 whole entry, looked up): as the sequence (Q8K4Z4 whole entry) above

`CC(C)NCC(O)c1ccc(O)c(O)c1` (configuration not stated) [ISOPROTERENOL]: the Kd in experiment [1] was 25.1 nM; in experiment [2], 17.8 nM.
For the molecule `CC(C)(C)NCC(O)c1ccc(O)c(CO)c1` (configuration not stated), the Efficacy in experiment [3] was 68%.
As to `CC(C)C[B-]1(O)OCc2cc([C@@H](O)C[NH2+]C(C)(C)C)ccc2O1` (some centres not stated), the Kd in experiment [1] was 5.13 nM. Moreover, in experiment [2], the EC50 is ≤ 280 nM and the Kd is 28.2 nM. Moreover, in experiment [3], the Efficacy came out at 94%.

(Values after ChEMBL document CHEMBL3393004, “Insights on the role of boron containing moieties in the design of new potent and efficient agonists targeting the β2 adrenoceptor” (Bioorg Med Chem Lett, 2015).)
